Assay results taken from ChEMBL document CHEMBL4842376, “Design, synthesis and biological evaluation of novel hybrids targeting mTOR and HDACs for potential treatment of hepatocellular carcinoma” (Eur J Med Chem, 2021).
The source made the active and inactive calls. The rule behind the calls is not given here.

What was measured:
[1] = target: T1, Protein deacetylase HDAC6 (Homo sapiens) (UniProt Q9UBN7); test: Inhibition of HDAC6 (unknown origin) at 1 uM using Ac-peptide as a substrate pretreated for 15 mins followed by substrate addition relative to control
T1 sequence (whole entry): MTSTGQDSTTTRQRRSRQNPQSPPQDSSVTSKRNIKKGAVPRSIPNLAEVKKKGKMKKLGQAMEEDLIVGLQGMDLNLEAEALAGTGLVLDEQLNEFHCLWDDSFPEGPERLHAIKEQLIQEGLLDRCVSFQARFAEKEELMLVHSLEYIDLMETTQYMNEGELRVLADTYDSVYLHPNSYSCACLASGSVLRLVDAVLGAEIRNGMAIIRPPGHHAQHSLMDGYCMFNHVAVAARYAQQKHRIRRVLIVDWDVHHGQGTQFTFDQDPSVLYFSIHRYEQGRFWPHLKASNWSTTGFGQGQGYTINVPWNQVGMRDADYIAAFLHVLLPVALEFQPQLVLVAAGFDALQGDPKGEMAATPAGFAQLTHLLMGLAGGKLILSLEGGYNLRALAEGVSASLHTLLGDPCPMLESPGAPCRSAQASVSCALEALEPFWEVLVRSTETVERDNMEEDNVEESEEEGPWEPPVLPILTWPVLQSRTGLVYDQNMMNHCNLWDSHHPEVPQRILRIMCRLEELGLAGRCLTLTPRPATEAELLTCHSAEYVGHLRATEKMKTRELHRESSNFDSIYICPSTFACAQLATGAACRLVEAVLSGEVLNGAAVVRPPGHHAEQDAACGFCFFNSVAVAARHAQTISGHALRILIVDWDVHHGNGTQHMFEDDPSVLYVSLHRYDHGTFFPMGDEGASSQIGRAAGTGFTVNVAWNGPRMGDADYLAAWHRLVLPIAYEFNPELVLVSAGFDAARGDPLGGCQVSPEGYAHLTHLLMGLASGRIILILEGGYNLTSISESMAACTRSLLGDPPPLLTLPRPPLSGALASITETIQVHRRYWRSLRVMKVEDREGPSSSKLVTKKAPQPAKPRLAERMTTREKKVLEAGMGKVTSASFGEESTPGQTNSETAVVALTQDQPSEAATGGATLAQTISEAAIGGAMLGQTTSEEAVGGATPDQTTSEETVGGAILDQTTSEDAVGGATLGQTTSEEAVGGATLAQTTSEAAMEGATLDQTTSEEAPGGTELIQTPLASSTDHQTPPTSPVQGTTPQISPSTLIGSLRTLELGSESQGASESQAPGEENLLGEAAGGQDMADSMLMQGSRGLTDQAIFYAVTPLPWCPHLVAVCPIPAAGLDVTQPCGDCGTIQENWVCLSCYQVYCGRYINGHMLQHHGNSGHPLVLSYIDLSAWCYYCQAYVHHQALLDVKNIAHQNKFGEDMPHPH

SK-HEP1 = test: cells; type: functional, cell-based; details: Homo sapiens, SK-HEP1, 72 h
Description: Antiproliferative activity against human SK-HEP1 cells assessed as inhibition of cell growth measured after 72 hrs by MTT assay

HepG2 [2] = test: Induction of cell cycle arrest in human HepG2 cells assessed as accumulation of cells in G2/M phase at 3 uM measured after 24 hrs by propidium iodide staining based flow cytometry analysis (reference value: 17.8 to 18.5%); type: functional
HepG2 [3] = test: Induction of cell cycle arrest in human HepG2 cells assessed as accumulation of cells in S phase at 3 uM measured after 24 hrs by propidium iodide staining based flow cytometry analysis (reference value: 17 to 26.4%); type: functional
HepG2 [4] = test: Induction of cell cycle arrest in human HepG2 cells assessed as accumulation of cells in G0/G1 phase at 3 uM measured after 24 hrs by propidium iodide staining based flow cytometry analysis (reference value: 52.7 to 63.2%); type: functional
HepG2 [5] = test: Induction of cell cycle arrest in human HepG2 cells assessed as accumulation of cells in S phase at 1.5 uM measured after 24 hrs by propidium iodide staining based flow cytometry analysis (Rvb= 17 to 26.4%); type: functional
Histone deacetylase 2 = Histone deacetylase 2 (Homo sapiens, UniProt Q92769)
Hep 3B2 = test: cells; type: functional, cell-based; details: Homo sapiens, Hep3B, 72 h
Description: Antiproliferative activity against human Hep3B cells assessed as inhibition of cell growth measured after 72 hrs by MTT assay

in vitro = details: human, L02 cells versus HepG2 cells
Description: Selectivity index, ratio of IC50 for cytotoxicity against human L02 cells to IC50 for antiproliferative activity against human HepG2 cells

[6] = target: Histone deacetylase (Homo sapiens) (UniProt Q13547+O15379+Q9UBN7+Q92769+Q9UQL6+Q8WUI4+Q9BY41+Q96DB2+P56524+Q9UKV0+Q969S8); test: Inhibition of HDAC in human HepG2 cells assessed as upregulation of alpha-tubulin acetylation at 6 uM measured after 24 hrs by western blot analysis; type: cell-based
A549 = test: cells; type: functional, cell-based; details: Homo sapiens, A549, 72 h
Description: Antiproliferative activity against human A549 cells assessed as inhibition of cell growth measured after 72 hrs by MTT assay

HepG2 [7] = test: Induction of cell cycle arrest in human HepG2 cells assessed as accumulation of cells in G0/G1 phase at 1.5 uM measured after 24 hrs by propidium iodide staining based flow cytometry analysis (reference value: 52.7 to 63.2%); type: functional
MCF7 = test: cells; type: functional, cell-based; details: Homo sapiens, MCF7, 72 h
Description: Antiproliferative activity against human MCF7 cells assessed as inhibition of cell growth measured after 72 hrs by MTT assay

HepG2 [8] = test: Induction of apoptosis in human HepG2 cells assessed as late apoptotic cells at 2.5 uM measured after 24 hrs by Annexin V-FITC/PI staining based flow cytometry analysis (Rvb= […]); type: functional
HepG2 [9] = test: Induction of apoptosis in human HepG2 cells assessed as late apoptotic cells at 10 uM measured after 24 hrs by Annexin V-FITC/PI staining based flow cytometry analysis (Rvb= […]); type: functional
Huh-7 = test: cells; type: functional, cell-based; details: Homo sapiens, Huh-7, 72 h
Description: Antiproliferative activity against human Huh-7 cells assessed as inhibition of cell growth measured after 72 hrs by MTT assay

HepG2 [10] = test: Induction of cell cycle arrest in human HepG2 cells assessed as accumulation of cells in G2/M phase at 6 uM measured after 24 hrs by propidium iodide staining based flow cytometry analysis (Rvb= 17.8 to 18.5%); type: functional
MDA-MB-231 = test: cells; type: functional, cell-based; details: Homo sapiens, MDA-MB-231, 72 h
Description: Antiproliferative activity against human MDA-MB-231 cells assessed as inhibition of cell growth measured after 72 hrs by MTT assay

SNU-423 = test: Antiproliferative activity against human SNU-423 cells assessed as inhibition of cell growth measured after 72 hrs by MTT assay; type: functional, cell-based; details: SNU-423, 72 h
L02 = test: cells; type: ADME, cell-based; details: Homo sapiens, L02, 72 h
Description: Cytotoxicity against human L02 cells assessed as reduction in cell viability measured after 72 hrs by MTT assay

[11] = Metabolic stability in rat liver microsomes assessed as parent compound remaining at 10 ug/ml measured after 1 hr in the presence of NADPH by HPLC analysis; type: ADME, Microsome; details: at 10 µg/mL
HepG2 [12] = test: Induction of apoptosis in human HepG2 cells assessed as dead cells at 10 uM measured after 24 hrs by Annexin V-FITC/PI staining based flow cytometry analysis (Rvb= 0.082%); type: functional
PLC-PRF-5 = test: Antiproliferative activity against human PLC-PRF-5 cells assessed as inhibition of cell growth measured after 72 hrs by MTT assay; type: functional, cell-based; details: PLC-PRF-5, 72 h

Histone deacetylase 2, sequence (Q92769 whole entry): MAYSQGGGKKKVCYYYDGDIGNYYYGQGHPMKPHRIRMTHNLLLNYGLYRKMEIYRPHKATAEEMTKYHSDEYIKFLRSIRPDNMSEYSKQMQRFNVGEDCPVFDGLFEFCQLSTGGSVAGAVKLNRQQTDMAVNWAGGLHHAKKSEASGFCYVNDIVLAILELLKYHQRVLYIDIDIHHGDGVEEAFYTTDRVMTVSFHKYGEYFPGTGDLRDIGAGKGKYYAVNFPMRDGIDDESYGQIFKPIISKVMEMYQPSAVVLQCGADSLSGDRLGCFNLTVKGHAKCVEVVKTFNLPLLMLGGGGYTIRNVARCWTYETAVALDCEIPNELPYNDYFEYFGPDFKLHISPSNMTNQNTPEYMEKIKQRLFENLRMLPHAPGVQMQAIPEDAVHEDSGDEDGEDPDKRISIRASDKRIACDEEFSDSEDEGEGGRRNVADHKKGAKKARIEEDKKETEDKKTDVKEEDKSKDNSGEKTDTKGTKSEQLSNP

Structure (SMILES) | inhibition [1] [%] | IC50 (SK-HEP1) [µM] | Activity (HepG2 [2]) [%] | Activity (HepG2 [3]) [%] | Activity (HepG2 [4]) [%] | Activity (HepG2 [5]) [%] | IC50 (Histone deacetylase 2) [µM] | IC50 (Hep 3B2) [µM] | selectivity ratio (in vitro) | inhibition [6] | IC50 (A549) [µM] | Activity (HepG2 [7]) [%] | IC50 (MCF7) [µM] | Activity (HepG2 [8]) [%] | Activity (HepG2 [9]) [%] | IC50 (Huh-7) [µM] | Activity (HepG2 [10]) [%] | IC50 (MDA-MB-231) [µM] | IC50 (SNU-423) [µM] | IC50 (L02) [µM] | other results
Nc1nc2cc(-c3nn(CCCCCCC(=O)NO)c4ncnc(N)c34)ccc2o1 | 99 | 2.69 | 10.8 | 15.2 | 70.4 | 16.4 | 0.0032 | 14 | 15.4 | Active | 33 | 66.2 | 11.8 | 8.06 | 27.2 | 5.71 | 15.7 | 8.43 | 6.1 | 24.8 | Stabilty ([11]; microsomes, 1 h): Stable; Activity (HepG2 [12]): 0.26%; IC50 (PLC-PRF-5): > 50 µM
Nc1ncnc2c1c(-c1cnc3[nH]ccc3c1)nn2CCCCCCCCC(=O)NO | 99.2 | 11.2 | 18.6 | 16.2 | 64.5 | 20.2 | 0.024 | 8.39 | 11.5 | Active | 12.2 | 60.1 | 24.7 | 12.3 | 17.8 | 7.38 | 23.5 | 11 | 7.5 | 35.1 | remaining at 1 h, 10 ug/ml ([11]; liver microsomes, read-out: Stabilty): 55.2%; Activity (HepG2 [12]): 0.56%; IC50 (PLC-PRF-5): 14.9 µM
